Measurements from publication PMC9964390, “Design, Synthesis and Phenotypic Profiling of Simplified Gedatolisib Analogues” (Pharmaceuticals, 2023).
Read-outs that look alike come from different tables or passages of the source.

Columns and labels:
CCRF-CEM [1] = assay: Muse Count & Viability Kit (flow cytometry); settings: for CC50 / Emax: Homo sapiens
Description: Cell viability, cell death pattern, cell cycle and detection of PI3K activation were evaluated, and each analysis was performed using specific protocols of the Guava Muse Cell Analyzer.
In total, 20 µL of the cell solution was added to 380 µL of the reagent in 1 mL Eppendorf tubes and incubated for 5 min at room temperature in the dark. Samples from three independent experiments carried out in duplicate were read on the cytometer, followed by statistical analysis of the histograms on Prism6 to determine the CC50.

CCRF-CEM cell line = assay: Muse Cell Cycle Kit; type: cell-based, human; settings: 48 h
Description: The Guava Muse Luminex® Cell Cycle Kit (catalog n^o MCH100106, Luminex) contains the DNA marker propidium iodide (PI) and RNAse A to avoid nonspecific labelling.
After 48 h of incubation in an incubator at 37 °C with 5% CO2, 1 mL of the MOLT-4 cell solution and 500 µL of the CCRF-CEM cell solution, contained in the wells, were transferred to Eppendorf tubes and centrifuged at 300× g for 5 min. The volumes used ensured that the cell density remained within the recommended range (1 × 10^6 to 4 × 10^6 cells/mL) at the end of the 48 h incubation period.
The supernatant was discarded, and the pellet formed was resuspended in 1 mL of saline PBS, homogenised, and centrifuged at 300× g for 5 min. The formed pellet was resuspended in residual PBS by homogenization. To fix cellular events, 1 mL of ice-cold 70% alcohol was added dropwise into the tubes and vortexed at medium speed. The samples were incubated, before staining, for at least 3 h at −20 °C.
At the end of the incubation time at −20 °C, the samples were centrifuged at 300× g for 5 min, and then the supernatant was discarded and resuspended in 250 µL of PBS. The samples were again centrifuged at 300× g for 5 min and the supernatant discarded, which constituted the washing step. The pellet formed was resuspended in 200 µL of the Guava Muse Luminex® Cell Cycle, and the tubes were incubated for 30 min at room temperature, away from light.
After incubation, the samples were read in Guava Muse Luminex®, and the data with the histograms generated, which contain information on the percentage of the different phases of the cell cycle, were analysed in the statistical program Prism6. This methodology was performed in duplicate of three independent experiments.

[2] = test system: PI3K activation and phosphorylation in CCRF-CEM cell line; assay: Muse PI3K Activation Dual Detection Kit; type: cell-based, human
Description: The methodology evaluates the activation and phosphorylation of PI3K and was performed from the labelling with the Guava Muse Luminex® PI3K Activation Dual Detection Kit (catalog n^o. MCH200103, Luminex) containing the anti-AKT/PKB-PECy5 antibody to measure total PI3K and the anti-phospho-AKT (Ser473)-Alexa Fluor® 555 antibody for measurement of activated PI3K.
Following 48 h of incubation in an incubator at 37 °C with 5% CO2, 1 mL of the cell solution was transferred to an Eppendorf tube, washed with PBS and centrifuged at 300× g for 5 min. The supernatant was discarded, and the pellet formed was resuspended in 500 µL of PBS. The samples were again centrifuged at 300× g for 5 min and the supernatant discarded.
Then the cell solutions were resuspended in 200 µL of assay buffer (Part no. CS202124), followed by the addition of 200 µL of fixation buffer (Part n^o. CS202122), ending up with a total volume of 400 µL per sample. The samples were incubated for 5 min on ice and centrifuged at 300× g for 5 min and the supernatant discarded.
Cells were permeabilized by adding 200 µL of ice-cold permeabilization buffer (Part n^o. CS202125) and then incubated on ice for 5 min and centrifuged at 300× g for 5 min, and the supernatant was discarded. The formed pellets were resuspended in 450 µL of assay buffer and vortexed at medium speed. In total, 90 µL of the solution from each sample was aliquoted into a new tube, and 10 µL of the cocktail solution containing Anti-phospho-Akt (Ser473), Alexa Fluor®555 and Anti-Akt/PKB, Pecy5 was added. The samples were homogenised and incubated for 30 min in the dark at room temperature.
After the incubation step, 100 µL of assay buffer was added per sample and centrifuged at 300× g for 5 min, and the supernatant was discarded. The formed pellets were resuspended in 200 µL of assay buffer and vortexed, and the samples were read in Guava Muse Luminex®. Data from three independent experiments performed in duplicate were analysed in the Prism6 program to determine the percentage of cells expressing activated and inactivated PI3K.

MOLT-4 = assay: MTT cell viability assay; type: cell-based, human; settings: for CC50 / Emax: Homo sapiens; for CC50: 95% confidence interval in brackets; for Emax: read-out: Emax (maximum effect at maximum concentration used); for loss of cytotoxic potency at 48 h versus 72 h (MTT): MOLT-4
Description: (§1) For the evaluation of cellular cytotoxicity in cancer cell lines, the compounds were tested at concentrations ranging from 0.00003 μM to 150 μM. Immortalized cancer cells were selected: PC-3 (PTEN-mutated prostate adenocarcinoma), MCF-7 (PI3KCA-mutated breast carcinoma), K562 (P53-mutated chronic myeloid leukemia), CCRF-CEM (acute lymphoblastic leukemia with mutation in PTEN) and MOLT-4 (acute lymphoblastic leukemia with mutation in PI3KR1/PTEN). Peripheral blood mononuclear cells (PBMCs) were used to determine the cytotoxic selectivity index (SI). All immortalized cells were cultured in RPMI 1640 medium with 10% (v/v) FBS, streptomycin + penicillin, at 37 °C in a humidified incubator containing 5% CO2.
(§2) Cell viability was assessed by the MTT assay. The lines selected for this study were plated according to their respective densities, which ranged from 3 × 10^4 to 4 × 10^4 cells per well. Subsequently, they were treated with test compounds at different concentrations (0.00003 μM to 150 μM), gedatolisib and GSK-1059615.
(§3) After incubation, the plates are centrifuged at 440× g for 10 min. Then, 110 μL of the supernatant was withdrawn and each well received 10μL of the MTT solution. The plate was again incubated in an oven at 37 °C and 5% CO2 for 3 to 4 h. At the end of the incubation time, 100 μL of SDS-HCL detergent was added to solubilize the formazan crystals. The plate was shaken on an automatic overnight shaker and then read at a wavelength of 595 nm on the Molecular Devices Spectramax M5 plate reader.

CCRF-CEM [3] = assay: MTT cell viability assay; type: cell-based, human; settings: for CC50 / Emax: Homo sapiens; for CC50: 95% confidence interval in brackets; for Emax: read-out: Emax (maximum effect at maximum concentration used)
Description: as §1, §2, §3

c1ccc(N2CCN(c3nc(N4CCCNCC4)nc(N4CCOCC4)n3)CC2)cc1 [5f, 4-(4-(1,4-Diazepan-1-yl)-6-(4-phenylpiperazin-1-yl)-1,3,5-triazin-2-yl)morpholine] was tested, and the “loss of potency in Muse Count & Viability Kit 72 h versus 72 h MTT” value (CCRF-CEM [1]) was no more than 10 fold, the CC50 (CCRF-CEM [1]; 48 h) was 49 µM and the Emax (CCRF-CEM [1]; 48 h) was 95%. For the same molecule, the CC50 (CCRF-CEM [1]; 72 h) was 53.1 µM, the Emax (CCRF-CEM [1]; 72 h) was 96% and the “action on the cell cycle” value (CCRF-CEM cell line; its CC50 value (50 µM)) was “cell cycle arrest in G0/G1”. The “percentage of inactivated cells raised to” value ([2]; concentration 10 times higher than its CC50) was 65%, the “percentage of inactivated cells raised to” value ([2]; tested at its CC50) was 30% and the CC50 (MOLT-4; MOLT-4, 48 h MTT) was 36.5 µM. For the same molecule, the Emax (MOLT-4; MOLT-4, 48 h MTT) was 80%, the CC50 (MOLT-4; MOLT-4, 72 h MTT) was 9.76 µM and the Emax (MOLT-4; MOLT-4, 72 h MTT) was 93%. The “loss of cytotoxic potency at 48 h versus 72 h (MTT)” value (from here on “loss … at 48 h versus 72 h (MTT)”) (MOLT-4) was “less than 4 fold”, the “loss … at 48 h versus 72 h (MTT)” value (CCRF-CEM [3]) was “less than 2 fold” and the CC50 (CCRF-CEM [3]; 48 h MTT) was 11.1 µM. The Emax (CCRF-CEM [3]; 48 h MTT) was 69%, the CC50 (CCRF-CEM [3]; 72 h MTT) was 6.25 µM and the Emax (CCRF-CEM [3]; 72 h MTT) was 93%.
In the case of CN(C)C1CCN(C(=O)c2ccc(NC(=O)Nc3ccc(-c4nc(N5CCOCC5)nc(N5CCOCC5)n4)cc3)cc2)CC1 [Gedatolisib, gedatolisib], the “loss of potency in Muse Count & Viability Kit 72 h versus 72 h MTT” value (CCRF-CEM [1]) is reported as 100 fold, the CC50 (CCRF-CEM [1]; 48 h) is reported as 5.88 µM and the Emax (CCRF-CEM [1]; 48 h) is reported as 94%. The CC50 (CCRF-CEM [1]; 72 h) was 6.15 µM, the Emax (CCRF-CEM [1]; 72 h) was 94% and the “action on the cell cycle” value (CCRF-CEM cell line; both concentrations tested (0.6 µM and 6 µM)) was “cell cycle arrest in the G0/G1 phase”. The “increase of the percentage of cells in the inactivated state” value ([2]; at its CC50 (~6 μM) and 10 times lower (0.6 μM)) was “about 75%”, the CC50 (MOLT-4; MOLT-4, 48 h MTT) was 0.15 µM and the Emax (MOLT-4; MOLT-4, 48 h MTT) was 92%. For the same molecule, the CC50 (MOLT-4; MOLT-4, 72 h MTT) was 0.02 µM, the Emax (MOLT-4; MOLT-4, 72 h MTT) was 93% and the “loss … at 48 h versus 72 h (MTT)” value (MOLT-4) was roughly 10 fold. For the same molecule, the “loss … at 48 h versus 72 h (MTT)” value (CCRF-CEM [3]) was roughly 10 fold, the CC50 (CCRF-CEM [3]; 48 h MTT) was 0.14 µM and the Emax (CCRF-CEM [3]; 48 h MTT) was 94%. The CC50 (CCRF-CEM [3]; 72 h MTT) was 0.03 µM and the Emax (CCRF-CEM [3]; 72 h MTT) was 90%.
